Laboratory results from paper PMC5828360, “Identification and characterization of highly versatile peptide-vectors that bind non-competitively to the low-density lipoprotein receptor for in vivo targeting and delivery of small molecules and protein cargos” (PLoS ONE, 2018).
Where a SMILES comes first, the peptide text is derived from it. The star is where a group is joined. Propionyl = CCC(=O)*

Key:
[1] = target: T1, hLDLR (Homo sapiens, UniProt P01130); test: Image J quantification of co-localization with hLDLR-GFP; type: cell-based; conditions: CHO-hLDLR-GFP, 10 μM, n = 3
T1 construct: Full length coding regions for hLDLR, mLDLR, rLDLR and hTfR were amplified by RT-PCR; expressed in transfected cells
Description: Cells alone or incubated 1 hr at 37°C with phage or peptide conjugates (10μM for S-Tag, fluorescent or siRNA conjugates and 10nM for Fc conjugates) were washed and subsequently fixed with 4% paraformaldehyde, washed again and incubated for 30 min at room temperature in PBS containing 3% BSA with or without 0.1% triton X-100 (Sigma-Aldrich). Cells were washed with PBS and incubated for 1 hr with primary antibodies directed against the hLDLR (rabbit, 1/100, Acris, Herford, Germany), against M13 bacteriophage (mouse, 1/3000, Sigma-Aldrich), against the S-Tag (goat, 1/250, Abcam) or against the Fc (mouse, 1/100, Jackson ImmunoResearch), followed by 3 washes with PBS and incubation with Alexa fluor 488, 594 or 647 anti-rabbit, anti-mouse or anti-goat secondary antibodies (1/800, Invitrogen). Cell nuclei were labeled with Hoechst #33258 (0.5 μg/mL, Invitrogen). […] In some experiments, binding and endocytosis of macromolecular complexes were assessed on live CHO-hLDLR-EGFP cells. […] Following fixation, cell nuclei were labeled with Hoechst#33258. Mounted slides were acquired with a Leica TCS SP2 confocal microscope (Leica Microsystems, Heidelberg, Germany). Images were analyzed using ImageJ software and quantification of co-localization between two markers was performed using the JaCoP plug-in, by calculating Mander’s correlation coefficients from unmodified images.

[2] = target: T2, hTfR (Homo sapiens, UniProt P02786); test: Image J quantification of co-localization with hTfR-GFP (control); type: cell-based; conditions: CHO-hTfR-GFP, 10 μM
T2 construct: Full length coding regions for hLDLR, mLDLR, rLDLR and hTfR were amplified by RT-PCR; expressed in transfected cells

[3] = target: T3, mLDLR (Mus musculus, UniProt P35951); conditions: in vivo, iv, 0.5 mg/kg
T3 construct: cells expressing LDLR in the zona fasciculata of WT mice; from tissue; host or cells: adrenal gland of C57Bl/6J mice (WT; ldlr-/- as control)
Description: For immunohistochemistry, transcardiac NaCl 0.9% perfusion was followed by 50 mL of PBS 1X- 4% paraformaldehyde (PFA). Mice organs were then removed and snap frozen in cold isopentane. Cryostat (Leica CM-3050-S) sections (14 μm thick) were stored at −80°C. Organ sections were first permeabilized and blocked for 1 hr at room temperature using a solution of PBS 1X, 0.1% Triton X-100 and 3% Bovine Serum Albumin (BSA). Sections were then incubated overnight at 4°C with anti-Fc-A594 (goat, 1/200, Jackson ImmunoResearch) and anti-mLDLR (goat 1/200, R&D Systems), followed by anti-goat-Alexa 488 (donkey, 1/800, Life Technologies) for 1 hr at room temperature. Nuclei were stained with Hoechst (0.5 μg/mL, Life Technologies). Omission of the primary antibody was used as control and no immunostaining was observed. Sections were mounted using Prolong Gold Antifading reagent (Life Technologies) on Superfrost glass slides. Images were taken and processed using a confocal microscope (LSM 700) and Zen software (Zeiss, Jena, Germany).

T1 sequence (P01130 22-860): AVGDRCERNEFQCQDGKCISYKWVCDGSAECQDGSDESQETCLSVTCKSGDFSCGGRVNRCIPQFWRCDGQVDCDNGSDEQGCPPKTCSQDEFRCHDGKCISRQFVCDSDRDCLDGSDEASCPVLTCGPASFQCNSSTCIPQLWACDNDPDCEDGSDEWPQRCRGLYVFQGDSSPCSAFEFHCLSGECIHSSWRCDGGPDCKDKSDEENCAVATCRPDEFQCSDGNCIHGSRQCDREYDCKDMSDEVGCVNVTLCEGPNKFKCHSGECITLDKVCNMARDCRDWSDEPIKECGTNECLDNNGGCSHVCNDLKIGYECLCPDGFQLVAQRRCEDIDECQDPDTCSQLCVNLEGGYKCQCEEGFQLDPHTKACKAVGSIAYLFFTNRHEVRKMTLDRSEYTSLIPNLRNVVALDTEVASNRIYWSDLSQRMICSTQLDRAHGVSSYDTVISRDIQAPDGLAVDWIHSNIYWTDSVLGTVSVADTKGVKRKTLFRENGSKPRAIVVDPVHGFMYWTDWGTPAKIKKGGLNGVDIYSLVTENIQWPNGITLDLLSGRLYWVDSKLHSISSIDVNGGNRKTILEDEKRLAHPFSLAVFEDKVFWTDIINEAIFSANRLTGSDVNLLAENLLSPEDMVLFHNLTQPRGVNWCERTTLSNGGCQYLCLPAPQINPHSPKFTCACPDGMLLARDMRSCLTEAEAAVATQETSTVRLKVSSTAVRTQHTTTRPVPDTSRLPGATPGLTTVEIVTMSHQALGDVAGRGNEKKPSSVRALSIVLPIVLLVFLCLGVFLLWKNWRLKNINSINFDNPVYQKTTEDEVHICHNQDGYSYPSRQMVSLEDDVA
T2 sequence (P02786 whole entry): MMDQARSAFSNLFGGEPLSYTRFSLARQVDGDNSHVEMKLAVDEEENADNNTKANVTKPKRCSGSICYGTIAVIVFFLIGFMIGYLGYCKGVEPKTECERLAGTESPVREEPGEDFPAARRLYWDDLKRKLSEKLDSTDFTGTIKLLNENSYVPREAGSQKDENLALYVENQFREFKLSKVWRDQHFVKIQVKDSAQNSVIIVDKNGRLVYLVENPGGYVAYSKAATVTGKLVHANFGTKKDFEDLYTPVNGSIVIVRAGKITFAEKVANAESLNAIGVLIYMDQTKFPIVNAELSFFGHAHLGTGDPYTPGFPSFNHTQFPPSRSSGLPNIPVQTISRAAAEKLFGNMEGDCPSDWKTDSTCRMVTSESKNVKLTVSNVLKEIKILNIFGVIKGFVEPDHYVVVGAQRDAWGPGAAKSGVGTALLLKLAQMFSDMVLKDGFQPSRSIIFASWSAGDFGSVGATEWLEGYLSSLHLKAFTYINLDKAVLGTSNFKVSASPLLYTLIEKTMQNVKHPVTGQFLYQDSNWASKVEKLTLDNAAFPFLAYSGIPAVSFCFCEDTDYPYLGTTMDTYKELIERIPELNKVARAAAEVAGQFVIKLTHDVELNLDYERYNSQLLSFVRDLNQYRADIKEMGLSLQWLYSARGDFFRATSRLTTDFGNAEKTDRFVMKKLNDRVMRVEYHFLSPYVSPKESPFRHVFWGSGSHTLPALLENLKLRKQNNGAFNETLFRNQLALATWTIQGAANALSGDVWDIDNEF
T3 sequence (P35951 22-862): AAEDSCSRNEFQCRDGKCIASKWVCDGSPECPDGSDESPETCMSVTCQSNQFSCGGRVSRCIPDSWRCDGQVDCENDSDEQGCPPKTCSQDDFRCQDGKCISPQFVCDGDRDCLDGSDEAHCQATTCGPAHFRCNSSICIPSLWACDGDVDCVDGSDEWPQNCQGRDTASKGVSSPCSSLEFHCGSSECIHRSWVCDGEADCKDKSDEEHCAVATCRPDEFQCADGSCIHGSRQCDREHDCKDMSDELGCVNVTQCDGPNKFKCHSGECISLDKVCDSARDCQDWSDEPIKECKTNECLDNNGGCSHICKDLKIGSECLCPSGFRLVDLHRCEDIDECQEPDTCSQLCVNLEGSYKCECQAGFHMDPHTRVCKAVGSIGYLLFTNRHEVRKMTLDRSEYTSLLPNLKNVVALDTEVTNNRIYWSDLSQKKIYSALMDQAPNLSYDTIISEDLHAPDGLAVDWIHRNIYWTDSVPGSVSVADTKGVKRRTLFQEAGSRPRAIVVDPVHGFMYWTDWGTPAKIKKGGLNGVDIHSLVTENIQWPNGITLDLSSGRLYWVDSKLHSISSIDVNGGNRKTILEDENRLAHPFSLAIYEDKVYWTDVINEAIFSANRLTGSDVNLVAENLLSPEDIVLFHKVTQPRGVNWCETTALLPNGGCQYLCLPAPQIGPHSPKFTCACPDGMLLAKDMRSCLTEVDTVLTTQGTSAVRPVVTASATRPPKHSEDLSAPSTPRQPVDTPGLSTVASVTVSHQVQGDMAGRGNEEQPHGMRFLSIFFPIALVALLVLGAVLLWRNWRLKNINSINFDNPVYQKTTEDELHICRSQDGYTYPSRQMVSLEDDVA

| Compound | percentage of hLDLR that co-localized with the S-Tag peptide [1] | also measured |
| --- | --- | --- |
| CCC(=O)N[C@@H](CC(C)C)C(=O)N[C@@H](CCCNC(=N)N)C(=O)N[C@@H](CCCCN)C(=O)N[C@@H](CC(C)C)C(=O)N[C@@H](CCCNC(=N)N)C(=O)N[C@@H](CCCCN)C(=O)N[C@@H](CCCNC(=N)N)C(=O)N[C@@H](CC(C)C)C(=O)N[C@@H](CC(C)C)C(=O)N[C@@H](CC(C)C)C(=O)N[C@@H](CCCNC(=N)N)C(=O)N[C@@H](CCCCN)C(=O)N[C@@H](CC(C)C)C(=O)N[C@@H](CCCNC(=N)N)C(=O)N[C@@H](CCCCN)C(=O)N[C@@H](CCCNC(=N)N)C(=O)N[C@@H](CC(C)C)C(=O)N[C@@H](CC(C)C)C(=O)NCC(=O)NCC(=O)NCC(=O)N[C@@H](CCCCN)C(=O)N[C@@H](CCC(=O)O)C(=O)N[C@H](C(=O)N[C@@H](C)C(=O)N[C@@H](C)C(=O)N[C@@H](C)C(=O)N[C@@H](CCCCN)C(=O)N[C@@H](Cc1ccccc1)C(=O)N[C@@H](CCC(=O)O)C(=O)N[C@@H](CCCNC(=N)N)C(=O)N[C@@H](CCC(N)=O)C(=O)N[C@@H](Cc1c[nH]cn1)C(=O)N[C@@H](CCSC)C(=O)N[C@@H](CC(=O)O)C(=O)N[C@@H](CO)C(N)=O)[C@@H](C)O [ApoE2-S-Tag] (Propionyl-LRKLRKRLLLRKLRKRLLGGGKETAAAKFERQHMDS-NH2) | under 10% |  |
| Propionyl-SVIDALQYKLEGTTRLTRKRGLKLATALSLSNKFVEGSGGGKETAAAKFERQHMDS-NH2 [ApoB-S-Tag] | under 10% |  |
| CCC(=O)N[C@@H]1CSSC(C)(C)[C@@H](C(=O)NCC(=O)NCC(=O)NCC(=O)N[C@@H](CCCCN)C(=O)N[C@@H](CCC(=O)O)C(=O)N[C@H](C(=O)N[C@@H](C)C(=O)N[C@@H](C)C(=O)N[C@@H](C)C(=O)N[C@@H](CCCCN)C(=O)N[C@@H](Cc2ccccc2)C(=O)N[C@@H](CCC(=O)O)C(=O)N[C@@H](CCCNC(=N)N)C(=O)N[C@@H](CCC(N)=O)C(=O)N[C@@H](Cc2c[nH]cn2)C(=O)N[C@@H](CCSC)C(=O)N[C@@H](CC(=O)O)C(=O)N[C@@H](CO)C(N)=O)[C@@H](C)O)NC(=O)CNC(=O)[C@H](CCCNC(=N)N)NC(=O)[C@H](CC(C)C)NC(=O)[C@H](CCCNC(=N)N)NC(=O)[C@@H]2CSCN2C(=O)[C@H](CCSC)NC1=O |  | co-localization with hTfR [2]: No co-localization |
| hIgG1Fc-SMCC- (Pr- cRPLGRMC-G-(CH2)2-S)2 (disulfide) [(VH4Sc)2-Fc, human IgG1-Fc chemically conjugated to scrambled VH4Sc peptide via sulfo-SMCC] |  | Fc labeling in adrenal gland zona fasciculata [3]: no Fc labeling |
